The source of these data is EP3529257B1, “[…] METHODS OF USE THEREOF” (Sage Therapeutics, Inc., priority 2016, dated 2018).

pEC50: −log10 of the molar value.

T1 sequence (Q12879 23-1464, other chains not shown): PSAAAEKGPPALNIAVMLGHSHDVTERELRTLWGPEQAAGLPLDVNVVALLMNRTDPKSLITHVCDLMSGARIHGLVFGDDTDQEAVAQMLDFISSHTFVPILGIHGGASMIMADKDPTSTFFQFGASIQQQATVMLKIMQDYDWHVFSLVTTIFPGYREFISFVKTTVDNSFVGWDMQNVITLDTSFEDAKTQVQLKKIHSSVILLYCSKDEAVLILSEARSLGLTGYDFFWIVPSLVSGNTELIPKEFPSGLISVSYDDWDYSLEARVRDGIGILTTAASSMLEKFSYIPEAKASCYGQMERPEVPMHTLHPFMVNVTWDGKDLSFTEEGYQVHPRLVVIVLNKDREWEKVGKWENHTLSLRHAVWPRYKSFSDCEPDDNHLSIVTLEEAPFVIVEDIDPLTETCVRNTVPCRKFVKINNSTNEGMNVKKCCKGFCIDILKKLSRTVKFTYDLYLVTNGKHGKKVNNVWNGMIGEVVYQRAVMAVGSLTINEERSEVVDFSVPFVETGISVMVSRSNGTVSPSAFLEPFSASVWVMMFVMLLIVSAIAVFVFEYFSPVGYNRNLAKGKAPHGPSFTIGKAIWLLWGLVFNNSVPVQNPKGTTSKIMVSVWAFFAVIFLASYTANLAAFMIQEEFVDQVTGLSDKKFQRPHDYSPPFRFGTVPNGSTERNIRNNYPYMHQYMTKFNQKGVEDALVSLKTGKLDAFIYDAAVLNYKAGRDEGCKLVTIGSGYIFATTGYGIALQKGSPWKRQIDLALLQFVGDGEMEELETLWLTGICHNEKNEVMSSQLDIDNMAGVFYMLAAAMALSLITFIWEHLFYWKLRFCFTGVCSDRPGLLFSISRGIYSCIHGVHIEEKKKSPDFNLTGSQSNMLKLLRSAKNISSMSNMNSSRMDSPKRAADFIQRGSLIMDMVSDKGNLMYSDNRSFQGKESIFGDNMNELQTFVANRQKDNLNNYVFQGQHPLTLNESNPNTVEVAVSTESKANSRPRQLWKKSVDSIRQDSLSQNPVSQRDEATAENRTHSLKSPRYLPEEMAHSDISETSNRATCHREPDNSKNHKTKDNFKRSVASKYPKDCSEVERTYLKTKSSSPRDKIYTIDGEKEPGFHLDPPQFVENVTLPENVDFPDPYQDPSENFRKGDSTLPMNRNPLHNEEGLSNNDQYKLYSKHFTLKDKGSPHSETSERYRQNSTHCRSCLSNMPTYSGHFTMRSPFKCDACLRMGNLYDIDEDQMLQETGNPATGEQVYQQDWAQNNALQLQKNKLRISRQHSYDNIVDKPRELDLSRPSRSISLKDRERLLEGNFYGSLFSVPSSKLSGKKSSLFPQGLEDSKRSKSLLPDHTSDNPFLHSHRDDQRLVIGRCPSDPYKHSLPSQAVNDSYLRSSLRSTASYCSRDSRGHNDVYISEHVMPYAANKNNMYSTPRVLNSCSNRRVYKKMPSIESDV

The first assay has as its target T1, GlunN1/GluN2A glutamate receptors (Homo sapiens, UniProt Q05586+Q12879).
T1 construct: expressed in transfected cells
The experiment in a line: Whole-cell patch clamp of mammalian cells (Ionworks Barracuda), positive allosteric modulation (PAM) of NMDA receptor, 2A. It is filed as cell-based. To be noted: HEK293, HEK293 cells; % activation of current elicited with EC20 L-glutamate and 30 µM glycine. As for the experimental part:
(§1) The measurements were perfomed using Ion Works Barracuda platform following this procedure: • Electrophysiological Procedures: • a) Intracellular solution (mM): 50 mM CsCl, 90 mM CsF, 2 mM MgCl2, 5 mM EGTA, 10 mM HEPES. Adjust to pH 7.2 with CsOH. • b) Extracellular solution, HB-PS (composition in mM): NaCl, 137; KCl, 1.0; CaCl2, 5; HEPES, 10; Glucose, 10; pH adjusted to 7.4 with NaOH (refrigerated until use). • c) Holding potential: -70 mV, potential during agonist/PAM application: -40 mV. • Recording procedure: • a) Extracellular buffer will be loaded into the PPC plate wells (11 µL per well). Cell suspension will be pipetted into the wells (9 µL per well) of the PPC planar electrode. • b) Whole-cell recording configuration will be established via patch perforation with membrane currents recorded by on-board patch clamp amplifiers. • c) Two recordings (scans) will be performed. First, during pre-application of test article alone (duration of pre-application - 5 min) and second, during test articles and agonist (EC20 L-glutamate and 30 µM glycine) co-application to detect positive modulatory effects of the test article.
(§2) Test Article Administration: The first pre-application will consist of the addition of 20 µL of 2X concentrated test article solution and, second, of 20 µL of 1X concentrated test article and agonist at 10 µL/s (2 second total application time).
(§3) PAM concentration-response data will be fitted to an equation of the form: % Activation = % L−glutamate EC20 + {(%MAX−%L−glutamateEC20)/[1+(([Test]/; EC50))^N]}, [formula] where [Test] will be the concentration of PAM (test article), EC50 will be the concentration of PAM producing half-maximal activation, N will be the Hill coefficient, % L-glutamate EC20 will be the percentage of the current Elicited with L-glutamate EC20, % MAX is the percentage of the current activated with the highest dose of PAM co-admitted with L-glutamate EC20 and % Activation will be the percentage of the current elicited with L-glutamate EC10-30 at each PAM concentration.
(§4) The maximal amplitude of the evoked currents are measured and defined as Peak Current Amplitude (PCA).
(In general: The patch-clamp technique gives a direct electrical read-out from membranes.)
Broadly, the Emax is the greatest response seen or fitted, relative to the assay's reference. `C[C@H](CCCC1(O)CC1)[C@H]1CC[C@H]2[C@@H]3CC[C@H]4C[C@](O)(C(F)(F)F)CC[C@]4(C)[C@H]3CC[C@]12C` [Compound 4115] displayed an Emax of 186%.

With `C[C@H](CCC1(O)CCC(C(C)(C)C)CC1)[C@H]1CC[C@H]2[C@@H]3CC[C@H]4C[C@](O)(C(F)(F)F)CC[C@]4(C)[C@H]3CC[C@]12C` (some centres unmarked) [Compound 4360], the Emax came out at 38.1%.

As for `CC[C@]1(O)CC[C@@]2(C)C(=CC[C@H]3[C@@H]4CC[C@H]([C@H](C)CC[C@H](O)c5ccc(F)cc5)[C@@]4(C)CC[C@@H]32)C1` [Compound 7146], the Emax stood at 104%.

As to `CC[C@]1(O)CC[C@@]2(C)C(=CC[C@H]3[C@@H]4CC[C@H]([C@H](C)CC[C@@H](O)c5ccccc5F)[C@@]4(C)CC[C@@H]32)C1` [Compound 7282], the Emax is 208%.

The compound `C[C@H](CC[C@@](C)(O)c1ccccc1)[C@H]1CC[C@H]2[C@@H]3CC=C4C[C@@](C)(O)CC[C@]4(C)[C@H]3CC[C@]12C` [Compound 7467] returned an Emax of 20.5%.

The compound `CC[C@]1(O)CC[C@H]2C(=CC[C@@H]3[C@@H]2CC[C@]2(C)[C@@H]([C@H](C)CC[C@H](O)C(C)C)CC[C@@H]32)C1` [Compound 8462] returned an Emax of 273%.

In turn, `CC[C@]1(O)CC[C@H]2C(=CC[C@@H]3[C@@H]2CC[C@]2(C)[C@@H]([C@H](C)CC[C@@H](O)C(C)C)CC[C@@H]32)C1` [Compound 8463] yielded an Emax of 291%.

Compound `CC[C@]1(O)CC[C@H]2C(=CC[C@@H]3[C@@H]2CC[C@]2(C)[C@@H]([C@H](C)CC[C@]4(O)CCOC4)CC[C@@H]32)C1` [Compound 8603] had an Emax of 294%.

In turn, `CC[C@]1(O)CC[C@H]2C(=CC[C@@H]3[C@@H]2CC[C@]2(C)[C@@H]([C@H](C)CCC4(O)CCOC4)CC[C@@H]32)C1` (some centres unmarked) [Compound 8689] displayed a maximal response (Emax) of 320%.

Still in this assay, the particulars now being: HEK293 cells; co-application with EC20 L-glutamate and 30 µM glycine; 8-point concentration-response.
The pEC50 is the negative decadic logarithm of the EC50, by convention in mol/L. A low value points to a large EC50. `C[C@H](CCC1(O)CCC(C(C)(C)C)CC1)[C@H]1CC[C@H]2[C@@H]3CC[C@H]4C[C@](O)(C(F)(F)F)CC[C@]4(C)[C@H]3CC[C@]12C` (some centres unmarked) [Compound 4360]: the pEC50 was < 5.00.

The next assay deals with T2, GluN2B glutamate receptors (Homo sapiens, UniProt Q05586+Q13224).
T2 construct: expressed in transfected cells; host or cells: mammalian cells (line not described for GluN2B)
T2 sequence (Q13224 27-1484, other chains not shown): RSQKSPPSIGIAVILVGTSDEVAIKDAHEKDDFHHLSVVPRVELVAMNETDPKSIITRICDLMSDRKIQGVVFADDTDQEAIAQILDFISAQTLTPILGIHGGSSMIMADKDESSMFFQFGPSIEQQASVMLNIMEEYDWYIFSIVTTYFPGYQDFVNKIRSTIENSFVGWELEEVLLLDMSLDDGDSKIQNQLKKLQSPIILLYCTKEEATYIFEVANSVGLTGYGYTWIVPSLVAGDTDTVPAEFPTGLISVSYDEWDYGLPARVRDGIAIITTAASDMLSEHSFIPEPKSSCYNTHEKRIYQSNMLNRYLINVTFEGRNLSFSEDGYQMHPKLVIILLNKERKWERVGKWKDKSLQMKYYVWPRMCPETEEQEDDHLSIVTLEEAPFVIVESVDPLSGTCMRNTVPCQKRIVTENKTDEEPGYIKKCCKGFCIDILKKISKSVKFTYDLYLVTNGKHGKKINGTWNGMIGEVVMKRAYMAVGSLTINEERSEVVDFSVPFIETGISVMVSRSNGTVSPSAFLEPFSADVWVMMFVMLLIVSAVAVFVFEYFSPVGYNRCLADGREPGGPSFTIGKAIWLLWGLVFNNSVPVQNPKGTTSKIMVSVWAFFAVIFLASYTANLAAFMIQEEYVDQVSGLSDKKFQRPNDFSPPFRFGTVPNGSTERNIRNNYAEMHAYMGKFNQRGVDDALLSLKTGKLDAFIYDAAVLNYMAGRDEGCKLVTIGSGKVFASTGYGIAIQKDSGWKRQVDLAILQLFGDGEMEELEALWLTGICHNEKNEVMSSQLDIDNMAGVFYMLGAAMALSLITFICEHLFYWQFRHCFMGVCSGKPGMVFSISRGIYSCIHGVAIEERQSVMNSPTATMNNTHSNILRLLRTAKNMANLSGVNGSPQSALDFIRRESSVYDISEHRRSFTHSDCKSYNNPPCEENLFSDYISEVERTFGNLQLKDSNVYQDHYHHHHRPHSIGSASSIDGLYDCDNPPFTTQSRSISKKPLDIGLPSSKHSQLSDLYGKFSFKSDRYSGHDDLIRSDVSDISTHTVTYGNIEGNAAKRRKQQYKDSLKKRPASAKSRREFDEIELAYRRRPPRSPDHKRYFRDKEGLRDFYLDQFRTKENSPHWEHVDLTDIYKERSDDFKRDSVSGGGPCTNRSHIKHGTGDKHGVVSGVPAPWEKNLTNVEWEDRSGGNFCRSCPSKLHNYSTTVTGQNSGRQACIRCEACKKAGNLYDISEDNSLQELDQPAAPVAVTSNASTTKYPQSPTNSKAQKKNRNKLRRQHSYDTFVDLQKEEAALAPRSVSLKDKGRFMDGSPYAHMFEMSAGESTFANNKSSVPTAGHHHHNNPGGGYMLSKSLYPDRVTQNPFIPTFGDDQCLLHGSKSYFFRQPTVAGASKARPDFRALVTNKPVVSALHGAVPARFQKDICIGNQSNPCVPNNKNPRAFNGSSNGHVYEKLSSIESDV
The experiment in a line: Whole-cell patch clamp of mammalian cells (Ionworks Barracuda), positive allosteric modulation (PAM) of NMDA receptor, 2B. It is filed as cell-based. To be noted: % activation of current elicited with EC20 L-glutamate and 30 µM glycine. As for the experimental part:
as §1, §2, §3, §4
`C[C@H](CCCC1(O)CC1)[C@H]1CC[C@H]2[C@@H]3CC[C@H]4C[C@](O)(C(F)(F)F)CC[C@]4(C)[C@H]3CC[C@]12C` [Compound 4115] came in with an Emax of 195%.

In the case of `C[C@H](CCC1(O)CCC(C(C)(C)C)CC1)[C@H]1CC[C@H]2[C@@H]3CC[C@H]4C[C@](O)(C(F)(F)F)CC[C@]4(C)[C@H]3CC[C@]12C` (some centres unmarked) [Compound 4360], the Emax was found to be 14.6%.

Consider `CC[C@]1(O)CC[C@@]2(C)C(=CC[C@H]3[C@@H]4CC[C@H]([C@H](C)CC[C@H](O)c5ccc(F)cc5)[C@@]4(C)CC[C@@H]32)C1` [Compound 7146], for which the Emax was found to be 167%.

In turn, `CC[C@]1(O)CC[C@@]2(C)C(=CC[C@H]3[C@@H]4CC[C@H]([C@H](C)CC[C@@H](O)c5ccccc5F)[C@@]4(C)CC[C@@H]32)C1` [Compound 7282] showed an Emax of 290%.

Consider `C[C@H](CC[C@@](C)(O)c1ccccc1)[C@H]1CC[C@H]2[C@@H]3CC=C4C[C@@](C)(O)CC[C@]4(C)[C@H]3CC[C@]12C` [Compound 7467], for which the Emax came out at 8.8%.

Turning to `CC[C@]1(O)CC[C@H]2C(=CC[C@@H]3[C@@H]2CC[C@]2(C)[C@@H]([C@H](C)CC[C@H](O)C(C)C)CC[C@@H]32)C1` [Compound 8462], the Emax came to 281%.

For `CC[C@]1(O)CC[C@H]2C(=CC[C@@H]3[C@@H]2CC[C@]2(C)[C@@H]([C@H](C)CC[C@@H](O)C(C)C)CC[C@@H]32)C1` [Compound 8463], the Emax is 324%.

On to `CC[C@]1(O)CC[C@H]2C(=CC[C@@H]3[C@@H]2CC[C@]2(C)[C@@H]([C@H](C)CC[C@]4(O)CCOC4)CC[C@@H]32)C1` [Compound 8603], for which the Emax was determined as 271%.

The compound `CC[C@]1(O)CC[C@H]2C(=CC[C@@H]3[C@@H]2CC[C@]2(C)[C@@H]([C@H](C)CCC4(O)CCOC4)CC[C@@H]32)C1` (some centres unmarked) [Compound 8689] returned an Emax of 439%.

The assay is the same for the next values; noted with them: co-application with EC20 L-glutamate and 30 µM glycine; 8-point concentration-response.
As to `C[C@H](CCC1(O)CCC(C(C)(C)C)CC1)[C@H]1CC[C@H]2[C@@H]3CC[C@H]4C[C@](O)(C(F)(F)F)CC[C@]4(C)[C@H]3CC[C@]12C` (some centres unmarked) [Compound 4360], the pEC50 is < 5.00.
